ChEMBL document CHEMBL1138703, “Allosteric potentiators of the metabotropic glutamate receptor 2 (mGlu2). Part 2: 4-thiopyridyl acetophenones as non-tetrazole containing mGlu2 receptor potentiators” (Bioorg Med Chem Lett, 2004)

Assays:
[1] = biological target: T1, Metabotropic glutamate receptor 2 (Homo sapiens, UniProt Q14416); assay: Potentiation as percent of maximum glutamate response at 1 mM
Target sequence in this assay (Q14416 19-872 limits assumed): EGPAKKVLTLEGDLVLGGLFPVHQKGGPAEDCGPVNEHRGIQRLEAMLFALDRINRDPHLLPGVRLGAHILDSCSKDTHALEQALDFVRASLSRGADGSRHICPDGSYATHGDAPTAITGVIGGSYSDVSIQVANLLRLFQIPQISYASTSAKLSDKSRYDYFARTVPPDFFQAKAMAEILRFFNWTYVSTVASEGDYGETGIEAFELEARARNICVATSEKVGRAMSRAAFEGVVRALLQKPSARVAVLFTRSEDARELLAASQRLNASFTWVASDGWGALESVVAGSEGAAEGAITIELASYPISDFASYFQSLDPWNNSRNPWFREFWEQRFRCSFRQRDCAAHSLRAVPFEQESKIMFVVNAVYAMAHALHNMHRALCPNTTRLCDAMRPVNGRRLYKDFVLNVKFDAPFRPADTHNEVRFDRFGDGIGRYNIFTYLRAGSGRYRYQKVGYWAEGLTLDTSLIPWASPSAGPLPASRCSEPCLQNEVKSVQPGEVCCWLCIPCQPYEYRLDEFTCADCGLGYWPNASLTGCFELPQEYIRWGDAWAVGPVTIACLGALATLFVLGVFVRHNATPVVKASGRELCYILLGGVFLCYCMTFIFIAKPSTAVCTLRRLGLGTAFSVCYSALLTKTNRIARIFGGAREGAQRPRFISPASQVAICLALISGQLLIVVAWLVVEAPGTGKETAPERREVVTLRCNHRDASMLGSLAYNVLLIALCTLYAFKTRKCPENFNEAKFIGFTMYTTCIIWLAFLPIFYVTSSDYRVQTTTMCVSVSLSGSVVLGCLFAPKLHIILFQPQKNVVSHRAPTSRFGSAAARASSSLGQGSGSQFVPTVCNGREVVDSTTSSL

[2] = Compound level in rat brain was determined upon administration at 2 mpk iv or 10 mpk po; format: ADME, organism-based; conditions: in vivo, read-out: Concentration in Brain
[3] = Ratio of brain to plasma levels was determined upon administration at 20 mpk intraperitoneally after 2 h; format: ADME; conditions: rat, brain and plasma, ip, 20 mg/kg
[4] = biological target: T1, Metabotropic glutamate receptor 2; assay: Binding affinity towards human metabotropic glutamate receptor 2 determined by [35S]GTP gamma S binding assay; format: functional
Target sequence in this assay (Q14416 whole entry): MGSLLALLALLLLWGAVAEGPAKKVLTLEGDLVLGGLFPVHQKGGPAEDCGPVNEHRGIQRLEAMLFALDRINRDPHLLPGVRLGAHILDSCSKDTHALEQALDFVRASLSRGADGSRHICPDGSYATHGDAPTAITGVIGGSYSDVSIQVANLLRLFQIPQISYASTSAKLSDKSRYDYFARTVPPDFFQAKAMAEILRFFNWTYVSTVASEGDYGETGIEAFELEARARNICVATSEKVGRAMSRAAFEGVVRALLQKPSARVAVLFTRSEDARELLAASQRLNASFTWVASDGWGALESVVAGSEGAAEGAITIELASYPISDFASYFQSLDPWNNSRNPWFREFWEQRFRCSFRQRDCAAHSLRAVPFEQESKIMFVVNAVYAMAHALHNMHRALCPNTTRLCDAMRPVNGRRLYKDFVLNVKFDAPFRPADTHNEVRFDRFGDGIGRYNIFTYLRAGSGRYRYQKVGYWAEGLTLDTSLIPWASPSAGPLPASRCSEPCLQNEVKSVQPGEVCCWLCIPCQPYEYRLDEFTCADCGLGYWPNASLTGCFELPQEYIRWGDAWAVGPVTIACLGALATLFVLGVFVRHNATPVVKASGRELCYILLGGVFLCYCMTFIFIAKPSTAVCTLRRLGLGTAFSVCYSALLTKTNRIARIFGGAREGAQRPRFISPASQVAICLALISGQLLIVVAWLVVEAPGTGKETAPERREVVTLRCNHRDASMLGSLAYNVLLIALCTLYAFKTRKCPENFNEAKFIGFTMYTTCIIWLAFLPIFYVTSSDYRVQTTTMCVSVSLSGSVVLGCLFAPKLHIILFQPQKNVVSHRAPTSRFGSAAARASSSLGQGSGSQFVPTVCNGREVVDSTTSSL

[5] = Bioavailability in rat (dose 2 mg/kg i.v. and 10 mg/kg p.o.); format: ADME, organism-based; conditions: in vivo, po
[6] = Total clearance in rat plasma upon administration at 2 mpk iv or 10 mpk po; format: ADME, organism-based; conditions: 2 mg/kg
[7] = biological target: T1, Metabotropic glutamate receptor 2; assay: Binding affinity for human metabotropic glutamate receptor 2 in [35S]GTP gamma S binding assay; not active at < 10 uM; format: functional
Target sequence in this assay (Q14416 whole entry): as above

Row | Structure (SMILES) | Potentiation [1] [%] | concentration [2] [nM] | Kp at 2 h [3] | EC50 [4] [nM] | bioavailability [5] [%] | clearance [6] [mL/min/kg] | EC50 [7]
1 | Cc1c(OCc2ccc(Sc3ccncc3)cc2)ccc(C(=O)CC(C)(C)C)c1O | 79 | 340 | 0.21 | 578 |  |  | 
2 | Cc1c(OCCCCOc2ccccn2)ccc(C(=O)CC(C)C)c1O | 33 |  |  | 3270 |  |  | 
3 | CC(C)CC(=O)c1ccc(OCCCCOc2ccccc2)c(Br)c1O | 53 |  |  | 1500 |  |  | 
4 | Cc1c(OCc2ccc(CSc3ccncc3)cc2)ccc(C(=O)CC(C)C)c1O | 78 |  |  | 770 |  |  | 
5 | CC(C)CC(=O)c1ccc(OCCCCOc2cccc(F)c2F)c(Br)c1O | 88 |  |  | 558 | 0 | 75 | 
6 | Cc1c(OCCCCOc2ccc(-n3cncn3)cc2)ccc(C(=O)CC(C)C)c1O | 18 |  |  | 4240 |  |  | 
7 | Cc1c(OCCCCOc2ccncc2)ccc(C(=O)CC(C)C)c1O | 40 |  |  | 3850 |  |  | 
8 | CC(C)CC(=O)c1ccc(OCCCCSc2ccncc2)c(Br)c1O | 82 |  |  | 676 |  |  | 
9 | Cc1c(OCCCCOc2ccccc2F)ccc(C(=O)CC(C)C)c1O | 30 |  |  | 1990 |  |  | 
10 | CCCc1c(OCCCCOc2ccc(-c3nnn[nH]3)cc2)ccc(C(C)=O)c1O |  |  | 0.01 |  | 63 | 33 | 
11 | Cc1c(OCCCCOc2ccc(-c3nn[nH]n3)cc2)ccc(C(=O)CC(C)C)c1O |  |  | 0.03 |  | 59 | 15 | 
12 | Cc1c(OCCCCSc2cccnc2)ccc(C(=O)CC(C)C)c1O | 26 |  |  | 1090 |  |  | 
13 | Cc1c(OCCCCOc2ccccc2)ccc(C(=O)CC(C)C)c1O | 24 |  |  | 4550 |  |  | 
14 | Cc1c(OCc2ccc(Sc3ccncc3)cc2)ccc(C(=O)CC(C)C)c1O | 38 |  |  | 1060 |  |  | 
15 | Cc1c(OCCCCSc2ccccn2)ccc(C(=O)CC(C)C)c1O | 21 |  |  | 1530 |  |  | 
16 | Cc1c(OCc2cccc(CSc3ccncc3)c2)ccc(C(=O)CC(C)C)c1O | 68 | 330 | 1.2 | 819 |  |  | 
17 | CC(C)CC(=O)c1ccc(OCCCCOc2cccnc2)c(Br)c1O | 67 |  |  | 575 |  |  | 
18 | Cc1c(OCCCCOc2cccnc2)ccc(C(=O)CC(C)C)c1O | 46 |  |  | 1720 |  |  | 
19 | Cc1c(OCCCCSc2ccncc2)ccc(C(=O)CC(C)C)c1O | 33 | 400 | 1.1 | 340 | 3 | 33 | 
20 | COc1ccccc1Oc1ccc(N(Cc2cccnc2)S(=O)(=O)CC(F)(F)F)cc1 |  | 10 | 0.15 |  | < 1 | 70 | 
21 | Cc1c(OCc2ccccc2Sc2ccncc2)ccc(C(=O)CC(C)C)c1O | 38 |  |  | 677 |  |  | 
22 | Cc1c(OCCCCCSc2ccncc2)ccc(C(=O)CC(C)C)c1O |  |  |  |  |  |  | Not Active
23 | Cc1c(OCc2cccc(Sc3ccncc3)c2)ccc(C(=O)CC(C)C)c1O | 58 |  |  | 890 |  |  | 
24 | Cc1c(OCCCSc2ccncc2)ccc(C(=O)CC(C)C)c1O |  |  |  |  |  |  | Not Active
25 | Cc1c(OCCCCOc2cccc(F)c2F)ccc(C(=O)CC(C)C)c1O | 18 |  |  | 384 |  |  | 
